Consider 5 compounds from patent publication US9895387B2, “Compositions for treating Helicobacter pylori infection” (OVER S.R.L., priority 2010, dated 2018).

Holding throughout (type): cell-based, Helicobacter pylori
In assay [1] the test system is H. pylori strain G50 (CagA−). Nature of the assay: Minimal bactericidal concentration (MBC), broth dilution with subculture on agar. Conditions: substance alone. In general terms: Dilution methods test growth across graded concentrations, often in twofold steps.
Assay [2] has as its system H. pylori strain 10K (CagA+). The description is as above. As to conditions: substance alone.
Assay [3] has as its system H. pylori strain CCUG 17874 (CagA+). The assay is described as above.
In assay [4] the test system is H. pylori strain G21 (CagA−). Described as above. Conditions: substance alone.
Assay [5] has as its system H. pylori strain 4 Kb (CagA+). The description is as above. Conditions: substance alone.
The subject of assay [6] is H. pylori strain Di Simpli (CagA+). Described as above. Conditions: substance alone.
Assay [7] has as its system H. pylori strain 328 (CagA+). Described as above. Conditions: substance alone.
The subject of assay [8] is H. pylori strain M/C-R1 (CagA+, resistant to met and clar). Described as above. As to conditions: substance alone.
The test system of assay [9] is H. pylori strain M/C-R2 (CagA+, resistant to met and clar). The description is as above. Conditions: substance alone.
Assay [10] relates to H. pylori strain 328 Km (isogenic mutant CagA−). As to conditions: substance alone.
The mark [11] stands for this setting: Helicobacter pylori, read-out: MBC.
The mark [12] stands for this setting: Helicobacter pylori, CCUG17874, substance alone, read-out: MBC.

In brackets after ≈: the same amount, converted by molar mass. Like-named read-outs stand apart in the source and are kept apart here.

Take `CC1(C)S[C@@H]2[C@H](NC(=O)[C@H](N)c3ccc(O)cc3)C(=O)N2[C@H]1C(=O)O` [amoxicillin]: the MBC in assay [1] (setting [11]) is 0.04 µg/mL (≈ 0.109 µM); in [2] (setting [11]), 0.08 µg/mL (≈ 0.219 µM).

As to `CC[C@H]1OC(=O)[C@H](C)[C@@H](O[C@H]2C[C@@](C)(OC)[C@@H](O)[C@H](C)O2)[C@H](C)[C@@H](O[C@@H]2O[C@H](C)C[C@H](N(C)C)[C@H]2O)[C@](C)(OC)C[C@@H](C)C(=O)[C@H](C)[C@@H](O)[C@]1(C)O` [clarithromycin], the MBC in assay [3] (setting [12]) came to 0.25 µg/mL (≈ 0.334 µM); in assay [1] (setting [11]), 0.2 µg/mL (≈ 0.267 µM); in assay [4] (setting [11]), 0.2 µg/mL (≈ 0.267 µM); in [5] (setting [11]) it was 0.1 µg/mL (≈ 0.134 µM); in assay [6] (setting [11]), 0.4 µg/mL (≈ 0.535 µM); in assay [7] (setting [11]), 0.2 µg/mL (≈ 0.267 µM). The MBC in assay [8] (setting [11]) was determined as 320 µg/mL (≈ 428 µM); in assay [9] (setting [11]) it was 2500 µg/mL (≈ 3340 µM).

Take `C[C@H]1COc2c(N3CCN(C)CC3)c(F)cc3c(=O)c(C(=O)O)cn1c23` [levofloxacin]: the figures for the MBC in assay [1] (setting [11]) and in assay [2] (setting [11]) were 0.16 µg/mL (≈ 0.443 µM) and 0.31 µg/mL (≈ 0.858 µM), respectively.

Turning to `Cc1ncc([N+](=O)[O-])n1CCO` [metronidazole], the MBC is 3.1 µg/mL (≈ 18.1 µM) in [3] (setting [12]); 10 µg/mL (≈ 58.4 µM) in assay [6] (setting [11]); 16 µg/mL (≈ 93.5 µM) in assay [7] (setting [11]); 40 µg/mL (≈ 234 µM) in assay [8] (setting [11]); 320 µg/mL (≈ 1870 µM) in [9] (setting [11]).

As to “polyoxyethylene (20) sorbitan monooleate [polysorbate 80]”, the MBC is 5.0 µg/mL in assay [3] (substance alone); 4.0 µg/mL in assay [1]; 4 µg/mL in [1] (listed as polysorbate); 1.6 µg/mL in assay [4]; 31 µg/mL in [5]; 25 µg/mL in assay [6]. The MBC in assay [2] is 6.2 µg/mL; in assay [7], 31 to 62 µg/mL; in [7] (listed as polysorbate), 62 µg/mL; in assay [10], 62 µg/mL; in [8] it was 160 µg/mL; in assay [9] it was 62 µg/mL.
